Test results taken from patent publication US12180194B2, “Multi-aziridine compound” (Covestro (Netherlands) B.V., priority 2018, dated 2024).

How the values were obtained:
Bscl2-GFP = assay: ToxTracker genotoxicity assay, Bscl2-GFP reporter induction; details: for Genotoxicity test, With S9 rat liver extract, Bscl 2, 10 / Genotoxicity test, Without S9 rat liver extract, Bscl 2, 10: GFP induction vs vehicle at 10% cytotoxicity; for Genotoxicity test, With S9 rat liver extract, Bscl 2, 10 / Genotoxicity test, With S9 rat liver extract, Bscl 2, 25 / Genotoxicity test, With S9 rat liver extract, Bscl 2, 50: 3 h exposure with S9, 24 h recovery; for Genotoxicity test, Without S9 rat liver extract, Bscl 2, 10 / Genotoxicity test, Without S9 rat liver extract, Bscl 2, 25 / Genotoxicity test, Without S9 rat liver extract, Bscl 2, 50: 24 h exposure, no S9; for Genotoxicity test, With S9 rat liver extract, Bscl 2, 25 / Genotoxicity test, Without S9 rat liver extract, Bscl 2, 25: GFP induction vs vehicle at 25% cytotoxicity; for Genotoxicity test, With S9 rat liver extract, Bscl 2, 50 / Genotoxicity test, Without S9 rat liver extract, Bscl 2, 50: GFP induction vs vehicle at 50% cytotoxicity
Rtkn-GFP = assay: ToxTracker genotoxicity assay, Rtkn-GFP reporter induction; details: for Genotoxicity test, With S9 rat liver extract, Rtkn, 10 / Genotoxicity test, Without S9 rat liver extract, Rtkn, 10: GFP induction vs vehicle at 10% cytotoxicity; for Genotoxicity test, With S9 rat liver extract, Rtkn, 10 / Genotoxicity test, With S9 rat liver extract, Rtkn, 25 / Genotoxicity test, With S9 rat liver extract, Rtkn, 50: 3 h exposure with S9, 24 h recovery; for Genotoxicity test, Without S9 rat liver extract, Rtkn, 10 / Genotoxicity test, Without S9 rat liver extract, Rtkn, 25 / Genotoxicity test, Without S9 rat liver extract, Rtkn, 50: 24 h exposure, no S9; for Genotoxicity test, With S9 rat liver extract, Rtkn, 25 / Genotoxicity test, Without S9 rat liver extract, Rtkn, 25: GFP induction vs vehicle at 25% cytotoxicity; for Genotoxicity test, With S9 rat liver extract, Rtkn, 50 / Genotoxicity test, Without S9 rat liver extract, Rtkn, 50: GFP induction vs vehicle at 50% cytotoxicity

Structure (SMILES) | Genotoxicity test, With S9 rat liver extract, Bscl 2, 10 (Bscl2-GFP) | Genotoxicity test, Without S9 rat liver extract, Bscl 2, 10 (Bscl2-GFP) | Genotoxicity test, With S9 rat liver extract, Bscl 2, 25 (Bscl2-GFP) | Genotoxicity test, Without S9 rat liver extract, Bscl 2, 25 (Bscl2-GFP) | Genotoxicity test, With S9 rat liver extract, Bscl 2, 50 (Bscl2-GFP) | Genotoxicity test, Without S9 rat liver extract, Bscl 2, 50 (Bscl2-GFP) | Genotoxicity test, With S9 rat liver extract, Rtkn, 10 (Rtkn-GFP) | Genotoxicity test, Without S9 rat liver extract, Rtkn, 10 (Rtkn-GFP) | Genotoxicity test, With S9 rat liver extract, Rtkn, 25 (Rtkn-GFP) | Genotoxicity test, Without S9 rat liver extract, Rtkn, 25 (Rtkn-GFP) | Genotoxicity test, With S9 rat liver extract, Rtkn, 50 (Rtkn-GFP) | Genotoxicity test, Without S9 rat liver extract, Rtkn, 50 (Rtkn-GFP)
CC(CN1CC1C)OC(=O)NCCCCCCNC(=O)OC(C)CN1CC1C (stereo not drawn) [Comp. Ex. 6, reference compound] | 1.4 fold | 1.4 fold | 2.1 fold | 2.0 fold | 2.3 fold | 2.0 fold | 2.2 fold | 2.1 fold | 3.4 fold | 3.1 fold | 2.1 fold | 3.1 fold
CC(CN1CC1C)OC(=O)NCC1(C)CC(NC(=O)OC(C)CN2CC2C)CC(C)(C)C1 (stereo not drawn) [Comp. Ex. 7, reference compound] | 1.2 fold | 1.2 fold | 1.6 fold | 1.6 fold | 1.7 fold | 2.4 fold | 1.6 fold | 1.6 fold | 2.7 fold | 2.5 fold | 3.5 fold | 3.8 fold
CC(CN1CC1C)OC(=O)NC(C)(C)c1cccc(C(C)(C)NC(=O)OC(C)CN2CC2C)c1 (stereo not drawn) [Comp. Ex. 8, reference compound] | 1.1 fold | 1.2 fold | 2.1 fold | 1.7 fold | 2.1 fold | 2.3 fold | 1.3 fold | 1.4 fold | 4.2 fold | 2.3 fold | 4.9 fold | 4.8 fold
CC(CN1CC1C)OC(=O)NC1CCC(CC2CCC(NC(=O)OC(C)CN3CC3C)CC2)CC1 (stereo not drawn) [Comp. Ex. 9, reference compound] | 1.2 fold | 1.2 fold | 1.6 fold | 1.6 fold | 2.0 fold | 2.2 fold | 1.6 fold | 1.5 fold | 2.6 fold | 2.2 fold | 3.7 fold | 3.3 fold
CCCCOCC(CN1CC1C)OC(=O)NCCCCCCNC(=O)OC(COCCCC)CN1CC1C (stereo not drawn) [Comp. Ex. 10, reference compound] | 1.3 fold | 1.3 fold | 1.5 fold | 1.5 fold | 1.5 fold | 1.6 fold | 1.5 fold | 1.2 fold | 2.3 fold | 1.9 fold | 2.2 fold | 1.9 fold
CCCCOCC(CN1CC1C)OC(=O)Nc1ccc(C)c(NC(=O)OC(COCCCC)CN2CC2C)c1 (stereo not drawn) [Comp. Ex. 11, reference compound] | 1.3 fold | 1.2 fold | 1.7 fold | 1.6 fold | 1.6 fold | 1.9 fold | 1.2 fold | 1.3 fold | 2.1 fold | 2.1 fold | 2.5 fold | 2.3 fold
CC(CN1CC1C)OC(=O)NCCCCCCn1c(=O)n(CCCCCCNC(=O)OC(C)CN2CC2C)c(=O)n(CCCCCCNC(=O)OC(C)CN2CC2C)c1=O (stereo not drawn) [Ex. 1] |  |  |  |  |  |  | 1.2 fold | 1.2 fold | 1.1 fold | 1.2 fold | 0.9 fold | 1.4 fold
CC(CN1CC1C)OC(=O)NCCCCCC/N=c1\oc(=O)n(CCCCCCNC(=O)OC(C)CN2CC2C)c(=O)n1CCCCCCNC(=O)OC(C)CN1CC1C (stereo not drawn) [Ex. 2] | 1.0 fold | 1.1 fold |  | 1.1 fold |  | 0.9 fold | 1.1 fold | 1.1 fold |  | 1.0 fold |  | 0.9 fold
CCC(CN1CC1C)OC(=O)NCCCCCCn1c(=O)n(CCCCCCNC(=O)OC(CC)CN2CC2C)c(=O)n(CCCCCCNC(=O)OC(CC)CN2CC2C)c1=O (stereo not drawn) [Ex. 7] | 1.1 fold | 1.1 fold | 1.3 fold | 1.1 fold | 1.5 fold |  | 1.1 fold | 1.1 fold | 1.3 fold | 1.3 fold | 1.5 fold | 
CC(OC(=O)NCCCCCCn1c(=O)n(CCCCCCNC(=O)OC(C)C(C)N2CC2C)c(=O)n(CCCCCCNC(=O)OC(C)C(C)N2CC2C)c1=O)C(C)N1CC1C (stereo not drawn) [Ex. 8] |  |  |  |  |  |  | 1.3 fold | 1.2 fold | 1.5 fold | 1.4 fold | 1.3 fold | 1.4 fold
C=CCOCC(CN1CC1C)OC(=O)NCCCCCCn1c(=O)n(CCCCCCNC(=O)OC(COCC=C)CN2CC2C)c(=O)n(CCCCCCNC(=O)OC(COCC=C)CN2CC2C)c1=O (stereo not drawn) [Ex. 9] | 1.2 fold | 1.1 fold | 1.2 fold | 1.2 fold | 1.2 fold | 1.2 fold | 1.1 fold | 1.0 fold | 1.1 fold | 1.1 fold | 1.2 fold | 1.1 fold
